Experimental data: patent US20160031839A1, “ARGININE […] INHIBITORS AND USES THEREOF” (EPIZYME, INC., priority 2013, published 2016)
Read-outs that look alike come from different tables or passages of the source.

Tests used:
PRMT1 = target: T1, PRMT1 (Homo sapiens, UniProt Q99873); assay: PRMT1 Biochemical Assay
T1 construct: made in house; host or cells: High Five insect cells (baculovirus)
Source text: Peptide representative of human histone H4 residues 36-50 was synthesized with an N-terminal linker-affinity tag motif and a C-terminal amide cap by 21st Century Biochemicals. The peptide was purified by high-performance liquid chromatography (HPLC) to greater than 95% purity and confirmed by liquid chromatography mass spectrometry (LC-MS). The sequence was Biot-Ahx-[…]-amide (SEQ ID NO.:1).
Full-length human PRMT1 isoform 1 (NM_001536.5) transcript clone was amplified from an HEK 293 cDNA library, incorporating flanking 5′ sequence encoding a FLAG tag ([…]) (SEQ ID NO.:2) fused directly to Met 1 of PRMT1. The amplified gene was subcloned into pFastBacI (Life Technologies) modified to encode an N-terminal GST tag and a TEV cleavage sequence
GST-tagged PRMT1 was eluted with 50 mM Tris, 2 mM glutathione, pH 7.8, dialysed in buffer A and concentrated to 1 mg/mL. The purity of recovered protein was 73%. Reference: Wasilko, D. J. and S. E. Lee: “TIPS: titerless infected-cells preservation and scale-up” Bioprocess J., 5 (2006), pp. 29-32.
General Procedure for PRMT1 Enzyme Assays on Peptide Substrates.
The assays were all performed in a buffer consisting of 20 mM Bicine (pH=7.6), 1 mM TCEP, 0.005% BSG, and 0.002% Tween 20, prepared on the day of use. Compounds in 100% DMSO (1 ul) were spotted into a polypropylene 384-well V-bottom plates (Greiner) using a Platemate Plus outfitted with a 384-channel head (Thermo Scientific). DMSO (1 ul) was added to Columns 11, 12, 23, 24, rows A-H for the maximum signal control and 1 ul of SAH, a known product and inhibitor of PRMT1, was added to columns 11, 12, 23, 24, rows I-P for the minimum signal control. A cocktail (40 ul) containing the PRMT1 enzyme was added by Multidrop Combi (Thermo-Fisher). The compounds were allowed to incubate with PRMT1 for 30 min at room temperature, then a cocktail (10 ul) containing SAM and peptide was added to initiate the reaction (final volume=51 ul). The final concentrations of the components were as follows: PRMT1 was 0.5 nM, ^3H-SAM was 200 nM, non-radiolabeled SAM was 1.5 uM, peptide was 20 nM, SAH in the minimum signal control wells was 1 mM, and the DMSO concentration was 2%. The assays were stopped by the addition of non-radiolabeled SAM (10 ul) to a final concentration of 300 uM, which dilutes the ^3H-SAM to a level where its incorporation into the peptide substrate is no longer detectable. 50 ul of the reaction in the 384-well polypropylene plate was then transferred to a 384-well Flashplate and the biotinylated peptides were allowed to bind to the streptavidin surface for at least 1 hour before being washed once with 0.1% Tween20 in a Biotek ELx405 plate washer. The plates were then read in a PerkinElmer TopCount plate reader to measure the quantity of ^3H-labeled peptide bound to the Flashplate surface, measured as disintegrations per minute (dpm) or alternatively, referred to as counts per minute (cpm).
Where dpm=disintegrations per minute, cmpd=signal in assay well, and min and max are the respective minimum and maximum signal controls.
Where top and bottom are the normally allowed to float, but may be fixed at 100 or 0 respectively in a 3-parameter fit. The Hill Coefficient normally allowed to float but may also be fixed at 1 in a 3-parameter fit. Y is the % inhibition and X is the compound concentration.

[1] = tested on: mono-methyl arginine in RKO cells; assay: RKO Methylation Assay (In Cell Western); assay type: cell-based; details: Homo sapiens, 72 hours
Source text: RKO Methylation Assay RKO adherent cells were purchased from ATCC (American Type Culture Collection), Manassas, Va., USA. DMEM/Glutamax medium, penicillin-streptomycin, heat inactivated fetal bovine serum, 0.05% trypsin and D-PBS were purchased from Life Technologies, Grand Island, N.Y., USA. Odyssey blocking buffer, 800CW goat anti-rabbit IgG (H+L) antibody, and Licor Odyssey infrared scanner were purchased from Licor Biosciences, Lincoln, Nebr., USA. Mono-methyl arginine antibody was purchased from Cell Signaling Technology, Danvers, Mass., USA. Methanol was purchased from VWR, Franklin, Mass., USA. 10% Tween 20 was purchased from KPL, Inc., Gaithersburg, Md., USA. DRAQ5 was purchased from Biostatus Limited, Leicestershire, UK. RKO adherent cells were maintained in growth medium (DMEM/Glutamax medium supplemented with 10% v/v heat inactivated fetal bovine serum and 100 units/mL penicillin-streptomycin) and cultured at 37° C. under 5% CO2. Cell Treatment, in Cell Western (ICW) for Detection of Mono-Methyl Arginine and DNA Content. RKO cells were seeded in assay medium at a concentration of 20,000 cells per mL to a poly-D-lysine coated 384 well culture plate (BD Biosciences 356697) with 50 μL per well. Compound (100 nL) from a 96-well source plate was added directly to 384 well cell plate. Plates were incubated at 37° C., 5% CO2 for 72 hours. After three days of incubation, plates were brought to room temperature outside of the incubator for ten minutes and blotted on paper towels to remove cell media. 50 μL of ice cold 100% methanol was added directly to each well and incubated for 30 min at room temperature. After 30 min, plates were transferred to a Biotek EL406 plate washer and washed 2 times with 100 μL per well of wash buffer (1×PBS). Next 60 μL per well of Odyssey blocking buffer (Odyssey Buffer with 0.1% Tween 20 (v/v)) were added to each plate and incubated 1 hour at room temperature. Blocking buffer was removed and 20 μL per well of primary antibody was added (mono-methyl arginine diluted 1:200 in Odyssey buffer with 0.1% Tween 20 (v/v)) and plates were incubated overnight (16 hours) at 4° C. Plates were washed 5 times with 100 μL per well of wash buffer. Next 20 μL per well of secondary antibody was added (1:200 800CW goat anti-rabbit IgG (H+L) antibody, 1:1000 DRAQ5 (Biostatus limited) in Odyssey buffer with 0.1% Tween 20 (v/v)) and incubated for 1 hour at room temperature. The plates were washed 5 times with 100 μL per well wash buffer then 2 times with 100 μL per well of water. Plates were allowed to dry at room temperature then imaged on the Licor Odyssey machine which measures integrated intensity at 700 nm and 800 nm wavelengths. Both 700 and 800 channels were scanned. […] Each plate included fourteen control wells of DMSO only treatment (minimum activation) as well as fourteen control wells for maximum activation treated with 20 μM of a reference compound. The average of the ratio values for each control type was calculated and used to determine the percent activation for each test well in the plate. Reference compound was serially diluted three-fold in DMSO for a total of nine test concentrations, beginning at 20 μM. Percent activation was determined and EC30 curves were generated using triplicate

[2] = Table 2, biochemical evaluation, read-out: PRMT1 IC50 (class)
[3] = Table 2a, numerical, single experiment or average of multiple experiments, read-out: PRMT1 IC50
[4] = numerical, single experiment or average of multiple experiments, read-out: In Cell Western EC30
[5] = read-out: In Cell Western EC30 (class)

T1 sequence (Q99873 with tags, fused parts or gaps): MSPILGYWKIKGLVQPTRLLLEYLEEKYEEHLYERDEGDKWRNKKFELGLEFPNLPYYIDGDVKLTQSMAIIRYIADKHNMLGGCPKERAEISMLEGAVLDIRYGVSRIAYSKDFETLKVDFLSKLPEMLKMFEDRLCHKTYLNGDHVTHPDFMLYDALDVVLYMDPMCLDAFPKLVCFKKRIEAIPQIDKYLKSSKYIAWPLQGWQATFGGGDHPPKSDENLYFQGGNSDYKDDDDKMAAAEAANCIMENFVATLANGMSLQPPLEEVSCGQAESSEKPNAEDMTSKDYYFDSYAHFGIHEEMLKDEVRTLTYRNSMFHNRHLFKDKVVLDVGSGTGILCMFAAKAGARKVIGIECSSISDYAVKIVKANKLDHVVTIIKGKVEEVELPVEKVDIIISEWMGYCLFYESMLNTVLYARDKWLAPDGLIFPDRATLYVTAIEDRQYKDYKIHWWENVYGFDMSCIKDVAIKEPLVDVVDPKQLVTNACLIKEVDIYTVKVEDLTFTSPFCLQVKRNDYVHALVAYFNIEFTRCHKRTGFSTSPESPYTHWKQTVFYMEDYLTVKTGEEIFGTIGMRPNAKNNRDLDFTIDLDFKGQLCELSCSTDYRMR

Compound | IC50 (PRMT1; [2]) | IC50 (PRMT1; [3]) | EC30 [1, 4] | EC30 [1, 5]
CN(CCN)Cc1ccnn1-c1ccc(C#N)cc1 [Compound 2, 4-(5-(((2-aminoethyl)(methyl)amino)methyl)-1H-pyrazol-1-yl)benzonitrile] | 0.101 to 1 µM | 0.157 µM | 15.1 µM | ≥ 12 µM
CN(CCN)Cc1ocnc1-c1ccc(C#N)cc1 [Compound 4, 4-(5-(((2-aminoethyl)(methyl)amino)methyl)oxazol-4-yl)benzonitrile] | 0.101 to 1 µM | 0.27 µM | 1.41 µM | ≤ 3 µM
CN(CCN)Cc1cnnn1-c1ccc(C#N)cc1 [Compound 5, 4-(5-(((2-aminoethyl)(methyl)amino)methyl)-1H-1,2,3-triazol-1-yl)benzonitrile] | > 10 µM | > 10 µM | > 20 µM | ≥ 12 µM
CN(CCN)Cc1n[nH]nc1-c1ccc(C#N)cc1 [Compound 3, 4-(5-(((2-aminoethyl)(methyl)amino)methyl)-2H-1,2,3-triazol-4-yl)benzonitrile] | < 0.1 µM | 0.082 µM | 18.6 µM | ≥ 12 µM
CN(CCN)Cc1[nH]cnc1-c1ccc(C#N)cc1 [Compound 10, 4-(5-(((2-aminoethyl)(methyl)amino)methyl)-1H-imidazol-4-yl)benzonitrile] | 0.101 to 1 µM | 0.215 µM | > 20 µM | ≥ 12 µM
CC(C)Oc1ccc(-n2nccc2CN(C)CCN)cc1 [Compound 8, N^1-((1-(4-isopropoxyphenyl)-1H-pyrazol-5-yl)methyl)-N^1-methylethane-1,2-diamine] | < 0.1 µM | 0.0139 µM | 1.63 µM | ≤ 3 µM
CN(CCN)Cc1cncn1-c1ccc(C#N)cc1 [Compound 6, 4-(5-(((2-aminoethyl)(methyl)amino)methyl)-1H-imidazol-1-yl)benzonitrile] | 1.01 to 3 µM | 1.68 µM | > 20 µM | ≥ 12 µM
CN(CCN)Cc1ncoc1-c1ccc(C#N)cc1 [Compound 1, 4-(4-(((2-aminoethyl)(methyl)amino)methyl)oxazol-5-yl)benzonitrile] | 0.101 to 1 µM | 0.314 µM | 14.2 µM | ≥ 12 µM
CN(CCN)Cc1nsnc1-c1ccc(C#N)cc1 [Compound 7, 4-(4-(((2-aminoethyl)(methyl)amino)methyl)-1,2,5-thiadiazol-3-yl)benzonitrile] | 0.101 to 1 µM | 0.277 µM | > 20 µM | ≥ 12 µM
CN(CCN)Cc1oncc1-c1ccc(F)cc1 [Compound 11, N^1-((4-(4-fluorophenyl)isoxazol-5-yl)methyl)-N^1-methylethane-1,2-diamine] | 1.01 to 3 µM | 2.7 µM | > 20 µM | ≥ 12 µM
CN(CCN)Cc1ccnn1-c1ccc(Oc2ccccc2)cc1 [Compound 9] | < 0.1 µM | 0.0154 µM | 2.31 µM | ≤ 3 µM
